Results reported in patent US20260167622A1, “PAN-KRAS DEGRADING AGENT, AND PREPARATION METHOD THEREFOR AND USE THEREOF” (LEADINGTAC PHARMACEUTICAL (SHAOXING) CO., LTD., priority 2022, published 2026).
pIC50: −log10 of the molar value.

Legend:
Assay type in all cases: cell-based
[1] = target: T1, KRAS G12V protein in SW900 cells (Homo sapiens, UniProt P01116, G12V); experiment: KRAS degradation assay (Western Blot) in SW900 cells; details: 24 h
T1 construct: endogenous in cells; host or cells: SW900
T1 sequence (P01116 1-188 isoform P01116-2 G12V): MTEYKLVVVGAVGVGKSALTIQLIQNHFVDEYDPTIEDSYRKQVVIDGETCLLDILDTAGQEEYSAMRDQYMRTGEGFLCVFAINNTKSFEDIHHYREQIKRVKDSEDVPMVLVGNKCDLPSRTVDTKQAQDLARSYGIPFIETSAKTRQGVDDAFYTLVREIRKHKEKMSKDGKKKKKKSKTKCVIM
Description: (§1) Test Example 5: KRAS G12C, KRAS G12D, KRAS G12V, KRAS G13D, and KRAS WT (Expanded) Degradation Assays
(§2) The degradation effect of the compounds on KRAS was investigated on KRAS G12C mutant human non-small cell lung cancer cell NCI-H358, KRAS G12D mutant human metastatic pancreatic cancer cell AsPc-1, KRAS G12D mutant human lung cancer cell A427, KRAS G12V mutant human colorectal cancer cell SW620, KRAS G12V mutant human lung cancer cell SW900, KRAS G13D mutant human colorectal cancer epithelial cell DLD-1, and KRAS WT human gastric cancer cell MKN-1. The specific procedures were as follows: 0.95 mL of cells were seeded into each well of a 24-well cell culture plate to achieve a cell density of 5×10^5 cells/well; and the cell plate was incubated in an incubator at 37° C. with 5% CO2 overnight. Then 50 μL of the compound solution after dilution was added to each of the wells with the corresponding cells, so that the final concentration of the compound was in a range of 0.03-3000 nM. The final concentration of DMSO was 0.25%. After the compounds were added, the cell plate was incubated in an incubator at 37° C. with 5% CO2 for 24 h. The culture medium in the 24-well cell culture plate was then removed, and the plate was washed twice with 1×PBS (KeyGEN). 120 μL of RIPA (strong) lysis buffer (Beyotime) (supplemented with 1 mM phenylmethylsulfonyl fluoride, a protease inhibitor mixture (Beyotime), and a protease phosphatase inhibitor mixture (Beyotime)) was added to lyse adherent SW900 cells at the bottom of the cell culture plate. After the plate was left to stand on ice for 30 min, the protein lysate in each well was transferred to a 1.5 mL centrifuge tube and centrifuged at 15000 g for 20 min at 4° C. The cell lysate supernatants after centrifugation were cryopreserved in a refrigerator at −80° C. for later use.
(§3) After the samples of the cell lysate supernatants that had been prepared were thawed from the refrigerator at −80° C., the total protein concentrations of the cell lysates were determined using a BCA protein quantification kit (Tiangen). The total protein concentrations of the samples were then adjusted to 0.5 μg/μL with PBS and 5×SDS-PAGE protein loading buffer (Beyotime), and the samples were incubated in a water bath at 100° C. for 15 min. The samples were then incubated in an ice bath for 5 min and centrifuged at 14000 g for 1 min at 4° C., and the supernatants were mixed well as loading samples for the Western Blot assay. The samples were loaded into wells of a 10% precast gel (KeyGEN) with a loading volume of 10 μL (total protein: 5 μg), a sufficient Tris-MOPS-SDS running buffer (Adamas) was added, and then electrophoresis was performed at a constant voltage of 120 V for 55 min. After the electrophoresis, the proteins on the gel were transferred to PVDF membranes at a constant current of 250 mA for 55 min. After the membrane transfer, the PVDF membranes were incubated in 1× Quick Block blocking buffer (Beyotime)at room temperature for 30 min. After the blocking, the PVDF membranes were separately incubated at 4° C. overnight with the KRAS antibody (Abcam) diluted in a ratio of 1:1000 and the β-actin antibody (Abcam) diluted in a ratio of 1:2000 in 5% BSA as the diluent, and then washed with 1×TBST buffer (2.4 g of Tris, 8.8 g of NaCl, 1.5 mL of Tween 20, with pH adjusted to 7.4, with the volume brought to 1 L) 3 times for 10 min/time. The membranes were incubated with a secondary antibody (Abcam) diluted in 5% BSA at room temperature for 2 h, and then washed with 1×TBST buffer 3 times for 10 min/time. Finally, the membranes were incubated with Clarity Western ECL Substrate (BIO-RAD) for 5 min for luminescence and color development, and a ChemiScope 6200 Touch chemiluminescence imaging system (Clinx) was used for color development and protein mapping. Gray value analysis of the protein maps was performed using the chemiluminescence analysis software (Clinx). […]

[2] = target: T2, KRAS G12V protein in SW620 cells (Homo sapiens, UniProt P01116, G12V); experiment: KRAS degradation assay (Western Blot) in SW620 cells; details: for DC50: 24 h; for Dmax: SW-620, 24 h
T2 construct: endogenous in cells; host or cells: SW620
T2 sequence (P01116 1-188 isoform P01116-2 G12V): as above
Description: as §1, §2, §3

[3] = system: KRAS G12D mutant human metastatic pancreatic cancer cell AsPc-1; experiment: 3D cell proliferation inhibition assay, AsPc-1; details: ASPC1, 168 h, 3D culture, 7 days, CTG
Description: (§4) Test Example 6: 3D Cell Proliferation Inhibition Assay
(§5) The inhibitory effects of the compounds on 3D cell proliferation were investigated on KRAS G12C mutant human non-small cell lung cancer cell NCI-H358, KRAS G12D mutant human lung cancer cell A427, KRAS G12D mutant human gastric cancer cell AGS, KRAS G12D mutant human metastatic pancreatic cancer cell AsPc-1, KRAS G12V mutant human lung squamous carcinoma cell SW900, KRAS G12V mutant human colorectal cancer cell SW620, KRAS G13D mutant human colorectal cancer epithelial cell DLD-1, and KRAS WT human gastric cancer cell MKN1. The specific procedures were as follows:
(§6) 10 μL of each compound solution diluted in a gradient was added to corresponding wells of a 96-well low-adsorption microplate (PerkinElmer), so that the final concentrations of the test compounds in the reaction system were in a range of 10000-0.026 nM. The final concentration of DMSO was 0.2%. Then 90 µL of cells were correspondingly seeded into each well to achieve a cell density of 5×10^2 cells/well (the cell density of SW900 was 5×10^3 cells/well, and the cell density of MKN1 was 1×10^3 cells/well). In addition to test wells for the test compounds, both a DMSO control well and a medium control well were set, with the DMSO control well containing DMSO and cells and the medium well containing only a medium. After the sample loading, the 96-well low-adsorption microplate was incubated in an incubator at 37° C. with […] for 7 days. After 7 days, the microplate was taken out, and 100 μL of CTG reagent (Promega) was added to each well. The plate was incubated at room temperature for 60 m and read on a microplate reader EnVision by the chemiluminescence program. The inhibition rates of the compounds at each concentration were calculated using the formula for the percentage inhibition of cell proliferation: inhibition rate 00=(mean value of DMSO control group−single concentration reading value of compound)/(mean value of DMSO control group−mean value of medium control group)×100. Then non-linear curve fillings for logarithmic concentration-inhibition rate were performed by GraphPad Prism 8, and the IC50 values of the compounds were obtained (Table 6).

[4] = system: KRAS G12C mutant human non-small cell lung cancer cell NCI-H358; experiment: 3D cell proliferation inhibition assay, NCI-H358; details: NCI-H358, 168 h, 3D culture, 7 days, CTG
Description: as §4, §5, §6

[5] = system: KRAS G12V mutant human colorectal cancer cell SW620; experiment: 3D cell proliferation inhibition assay, SW620; details: SW-620, 168 h, 3D culture, 7 days, CTG
Description: as §4, §5, §6

[6] = system: KRAS G13D mutant human colorectal cancer epithelial cell DLD-1; experiment: 3D cell proliferation inhibition assay, DLD-1; details: DLD-1, 168 h, 3D culture, 7 days, CTG
Description: as §4, §5, §6

Row | SMILES | DC50 [1] [nM] | Dmax [1] [%] | DC50 [2] [nM] | Dmax [2] [%] | pIC50 [3] | pIC50 [4] | pIC50 [5] | pIC50 [6]
1 | C#Cc1c(F)ccc2cc(O)cc(-c3ncc4c(NC5CC5)nc(OCC5(CN6CCN(CC7CCC8(CC7)CCN(C(=O)c7ccc(OC)c(N9CCC(=O)NC9=O)c7)CC8)CC6)CC5)nc4c3F)c12 [Example 31, 1-(5-(9-((4-((1-(((4-(cyclopropylamino)-7-(8-ethynyl-7-fluoro-3-hydroxynaphthalen-1-yl)-8-fluoropyrido[4,3-d]pyrimidin-2-yl)oxy)methyl)cyclopropyl)methyl)piperazin-1-yl)methyl)-3-azaspiro[5.5]undecane-3-carbonyl)-2-methoxyphenyl)dihydropyrimidine-2,4(1H,3H)-dione] | 50 to 100 | 50 to 80 | – | – | – | – | – | –
2 | C#Cc1c(F)ccc2cc(O)cc(-c3ncc4c(N5CCCC(F)(F)C5)nc(OC[C@H](C)CN5CCN(CC6CCC7(CC6)CCN(C(=O)c6ccc(OC)c(N8CCC(=O)NC8=O)c6)CC7)CC5)nc4c3F)c12 [Example 67, (R)-1-(5-(9-((4-(3-((4-(3,3-difluoropiperidin-1-yl)-7-(8-ethynyl-7-fluoro-3-hydroxynaphthalen-1-yl)-8-fluoropyrido[4,3-d]pyrimidin-2-yl)oxy)-2-methylpropyl)piperazin-1-yl)methyl)-3-azaspiro[5.5]undecane-3-carbonyl)-2-methoxyphenyl)dihydropyrimidine-2,4(1H,3H)-dione] | – | – | 33.6 | 93.1 | 6.38 | 6.27 | 7.48 | 7.15
3 | C#Cc1c(F)ccc2cc(O)cc(-c3ncc4c(N5CCCC(C)(N)C5)nc(OCC5(CN6CCN(CC7CCC8(CC7)CCN(C(=O)c7ccc(C)c(N9CCC(=O)NC9=O)c7)CC8)CC6)CC5)nc4c3F)c12 (stereo not shown) [Example 166, 1-(5-(9-((4-((1-(((4-(3-amino-3-methylpiperidin-1-yl)-7-(8-ethynyl-7-fluoro-3-hydroxynaphthalen-1-yl)-8-fluoropyrido[4,3-d]pyrimidin-2-yl)oxy)methyl)cyclopropyl)methyl)piperazin-1-yl)methyl)-3-azaspiro[5.5]undecane-3-carbonyl)-2-methylphenyl)dihydropyrimidine-2,4(1H,3H)-dione] | – | – | – | – | 6.28 | – | – | –
4 | C#Cc1c(F)ccc2cc(O)cc(-c3ccc4c(N5CCC[C@@](C)(O)C5)nc(OC[C@H](C)CN5CCN(CC6CCC7(CC6)CCN(C(=O)c6ccc(C)c(N8CCC(=O)NC8=O)c6)CC7)CC5)nc4c3F)c12 [Example 61, 1-(5-(9-((4-((R)-3-((7-(8-ethynyl-7-fluoro-3-hydroxynaphthalen-1-yl)-8-fluoro-4-((R)-3-hydroxy-3-methylpiperidin-1-yl)quinazolin-2-yl)oxy)-2-methylpropyl)piperazin-1-yl)methyl)-3-azaspiro[5.5]undecane-3-carbonyl)-2-methylphenyl)dihydropyrimidine-2,4(1H,3H)-dione] | – | – | 18.9 | 99.3 | 7.17 | 7.72 | 7.88 | 7.40
5 | C#Cc1c(F)ccc2cc(O)cc(-c3ncc4c(N5CCC[C@@](C)(O)C5)nc(OCC5(CN6CCC(CN(C)CCC7CCN(C(=O)c8ccc(Cl)c(N9CCC(=O)NC9=O)c8)CC7)CC6)CC5)nc4c3F)c12 [Example 18, (R)-1-(2-chloro-5-(4-(2-(((1-((1-(((7-(8-ethynyl-7-fluoro-3-hydroxynaphthalen-1-yl)-8-fluoro-4-(3-hydroxy-3-methylpiperidin-1-yl)piperidino[4,3-d]pyrimidin-2-yl)oxy)methyl)cyclopropyl)methyl)piperidin-4-yl)methyl)(methyl)amino)ethyl)piperidine-1-carbonyl)phenyl)dihydropyrimidine-2,4(1H,3H)-dione] | 100 to 500 | 50 to 80 | – | – | – | – | – | –
6 | C#Cc1c(F)ccc2cc(O)cc(-c3ncc4c(N5CCC[C@@](C)(O)C5)nc(OC[C@H](C)CN5CCN(CC6CCC7(CC6)CCN(C(=O)c6cc(N8CCC(=O)NC8=O)c(C)cc6F)CC7)CC5)nc4c3F)c12 [Example 162, 1-(5-(9-((4-((R)-3-((7-(8-ethynyl-7-fluoro-3-hydroxynaphthalen-1-yl)-8-fluoro-4-((R)-3-hydroxy-3-methylpiperidin-1-yl)pyrido[4,3-d]pyrimidin-2-yl)oxy)-2-methylpropyl)piperazin-1-yl)methyl)-3-azaspiro[5.5]undecane-3-carbonyl)-4-fluoro-2-methylphenyl)dihydropyrimidine-2,4(1H,3H)-dione] | – | – | 21.7 | 100 | 7.70 | 8.42 | 8.31 | 7.89
7 | C#Cc1c(F)ccc2cc(O)cc(-c3ncc4c(NC(C)(C)C)nc(OCC5(CN6CCN(CC7CCC8(CC7)CCN(C(=O)c7ccc(OC)c(N9CCC(=O)NC9=O)c7)CC8)CC6)CC5)nc4c3F)c12 [Example 32, 1-(5-(9-((4-((1-(((4-(tert-butylamino)-7-(8-ethynyl-7-fluoro-3-hydroxynaphthalen-1-yl)-8-fluoropyrido[4,3-d]pyrimidin-2-yl)oxy)methyl)cyclopropyl)methyl)piperazin-1-yl)methyl)-3-azaspiro[5.5]undecane-3-carbonyl)-2-methoxyphenyl)dihydropyrimidine-2,4(1H,3H)-dione] | ≤ 50 | 50 to 80 | – | – | – | – | – | –
